The numbers were not newly measured in US9309233B2, “Compositions and methods for the treatment of blood clotting disorders” (CELLIX BIO PRIVATE LIMITED, priority 2012, dated 2016), which cites them from elsewhere.

Take `CCCCCCOC(=O)NC(=N)c1ccc(NCc2nc3cc(C(=O)N(CCC(=O)OCC)c4ccccn4)ccc3n2C)cc1` [Dabigatran etexilate]: the oral bioavailability result (oral) is given as “≈ 6%”.

Take `[H]/N=C(/N)c1ccc(NCc2nc3cc(C(=O)N(CCC(=O)O)c4ccccn4)ccc3n2C)cc1` [dabigatran]: for the setting “plasma levels of dabigatran after drug administration (dabigatran etexilate)”, the “time at which plasma levels peak” value was “≈ 2 hours”.
